{
  "source": "patent US12102685B2",
  "about": "“Immodulator peptides covalently modified with small molecules” (priority 2020, dated 2024)",
  "key": {"[1]": {"assay": "Iron binding of separately labeled peptides (x2E e)", "details": "each peptide labeled separately; IM3 = 100; ferric iron", "method": "(§1) Experiments were conducted by the procedure described above. Ferric iron-charged NTA-coated 96-well plates were used as described. 1 ug/well immodulator peptide complexed to Alexa-488-labeled streptavidin in PBS buffer was added (60 min at room temperature). The plate was washed and counted in a standard fluorometer (excitation/emission: 485/525 nm). The results (fluorescence) show improved iron-binding by the three peptides extended C-terminally by the AVD, (dA)VD, and FVS tripeptides. **p<0.01 vs IM3 control IM3: 200±29; IM4: 45±37**; IM5: 130±77; IM3AVD: 434±29**; IM3dAVD: 418±28**; IM3FVS: 371±33** • (c) Competition assay. The same procedure was used as the preceding experiment, except that 375 ng/well labeled IM3 peptide was used, plus 10× of the indicated unlabeled peptide. ‘No competing peptide’ control value was set to 100. *p<0.05 vs “no peptide” control Competing Peptide/Fluorescence • None: 100±38; IM4: 125±26; IM3: 63±27*; IM5: 40±14*; IM3AVD: 10±28* • (d) Competition assay. The same procedure was used as the preceding experiment, except that labeled IM3AVD peptide was used. **p<0.01 vs “no competing peptide” control • None: 100±9; IM4: 144±44; IM3: 35±16**; IM5: 30±19**; IM3AVD: 9±19** • (e) The same procedure was used as the preceding experiment, except that each peptide was labeled with Alexa-488-labeled streptavidin in PBS buffer and used separately. Binding to IM3 was set to =100. *p<0.05, **p<0.01 vs IM3 control. (Labeled Peptide/Fluorescence) IM1: 1.8±0.4**; IM2: 3.0±1.8**; IM3: 100.0±16.8; IM4: 7.2±1.7*; IM5: 86.7±6.4; IM6: 85.9±14.9; IM3AVD:137.7±11.8*; IM3dAVD:147.4±22.9*; IM3FVS: 101.5±10.5."}, "[2]": {"assay": "Binding to Echelon PPI Arrays (x9B)", "set-up": "key: 0=no binding; 1=low binding; 2=medium binding; 3=high binding", "details": "100 pmol PPI spot, colorimetric readout", "from_the_text": "Binding of immodulator peptides to Echelon PPI Arrays. PPI arrays were purchased from Echelon Biosciences (Sal Lake City, UT) and used according to the manufacturer's recommendations. Colorimetric readout from each 100 pmol PPI spot in the array is expressed as 0=no binding, 1=low binding, 2=medium binding and 3=high binding. […] In addition, IM3 and IM5 show slight binding to PI(3,4,5)P3."}, "[3]": {"tested_on": "COL1 in HFF-1 dermal fibroblasts", "assay": "Collagen-1 ELISA in HFF-1 dermal fibroblasts (x11A)", "assay_type": "cell-based", "details": "peptide 2 uM, 72 hour; control (buffer) = 100", "method": "(§2) Immune modulation functions of immodulator peptides have potential untility in the field of cosmetics. HFF-1 cell line was obtained from American Type Culture Collection (ATCC). Cells were grown in a T-75 flask in DMEM Medium containing 10% fetal bovine serum and penicillin-streptomycin at 37° C. in a humidified, 5% CO2 incubator. Cells ([…], 2,000 cells/well) were plated in a 96-well plate and incubated overnight at 37° C. in a humidified, 5% CO2 incubator. Next day, […] of compounds were added (quadruplicate wells). After 72 hour incubation with the compound, supernatants were collected for Collagen-1 ELISA assay and cell viability was measured in a luminometer after the addition of […] CellTiterGlo reagent (Promega Inc, Madison, WI) as recommended by the manufacturer.\nCollagen stimulating activity of immodulator peptides in HFF-1 dermal fibroblasts. Peptides were added to cells at 2 uM. COL1 immunoreactivity was measured in the supernatants of cultured cells by ELISA using a rabbit monoclonal anti-COL1 primary antibody (Abcam, Cambridge, MA). Control (buffer) value of immunoreactivity was set to 100."}, "[4]": {"target": "T1, AA111-228 DNA-binding domain of RXR-alpha (RXRa-DBD) (Homo sapiens, UniProt P19793)", "T1 construct": "purchased Abcam, Cambridge, MA", "T1 sequence (P19793 111-228)": "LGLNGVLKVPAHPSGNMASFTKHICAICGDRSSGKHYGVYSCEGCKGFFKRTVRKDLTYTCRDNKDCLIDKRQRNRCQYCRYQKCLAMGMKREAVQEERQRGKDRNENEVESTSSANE", "assay": "Binding to RXRa-DBD (x3A)", "details": "1 ug/well RXRa-DBD, 800 ng/well SA488-labelled peptide; background subtracted", "method": "Binding of immodulator peptides to AA111-228 DNA-binding domain of RXR-alpha (RXRa-DBD). 1 ug/well recombinant RXRa-DBD (Abcam, Cambridge, MA) was adsorbed to wells of a 96-well plate for 60 minutes at RT, then blocked with 200 uL 1% BSA in PBS buffer overnight. Plate was washed and 800 ng/well Streptavidin-Alexa 488 conjugate (SA488)-labelled IM peptide was added. The plate was incubated for 60 min at room temperature, washed and counted in a standard fluorometer (excitation/emission 485/525 nm). Background (buffer alone) was subtracted."}, "[5]": {"assay": "Binding to heparin-agarose spin column (x3D)", "details": "1 ug SA488-labelled peptide", "method": "1 ug Streptavidin-Alexa 488 conjugate (SA488)-labelled IM peptide in PBS buffer was loaded on a spin column packed with 0.2 ml bed volume heparin-agarose (G-Biosciences, St. Louis, MO). The column was centrifuged for 2 min at 2,000 G and the flow-through was collected. The column was then washed with 0.3 ml 1% BSA in PBS buffer and the column spin repeated. Flowthrough and wash were pooled and duplicate 20 uL aliquots counted in a standard fluorometer (excitation/emission 485/525 nm). Results are expressed as percentage of input counts that bound the heparin-agarose column, versus flowthrough. Percent counts bound to heparin-agarose resin are shown below. IM3, IM5 and IM6 peptides bind heparin-agarose in this assay."}, "[6]": {"assay": "Alexa488-SA-labelled IM1-IM6 binding to metal-charged NTA-coated plate (x2B d)", "details": "no peptide background = 1.0", "method": "NTA-metal-affinity fluorescence assay was performed using 96-well NTA-metal-coated plates readily available from commercial sources such as Qiagen (Germantown, MD). NTA was charged with ferrous or ferric iron, zinc, copper, calcium, vanadium, ruthenium, cobalt, titanium, manganese or other metals. 400 ng of FITC-labeled immodulator peptide (or biotinylated immodulator peptide complexed to Alexa-488-labeled streptavidin) in PBS buffer was added per plate. After incubation at room temperature for 60 minutes, excess peptide was washed off and peptide was detected by measuring fluorescence (excitation 490 nm, emmission 525 nm) in a fluorometer. • (a) Using FITC-labeled IM3 peptide (1 ug/well) in the fluorescent binding assay: • EDTA-treated control: 2,251±1,186 • Ferrous iron: 170,441±11,264 (p<0.001)* • Copper: 13,644±5566 (p<0.05)* • Calcium: 48,822±11,990 (p<0.01)* • *p values are relative to EDTA-treated control • (b) Competition binding assay to ferrous iron, calcium, copper and zinc-charged NTA-coated plates using FITC-labeled IM3 peptide (0.5 uM) and 8× (4 uM) unlabelled competitor peptides IM3N1, IM3N2 (*all comparisons to PBS control are p<0.01); # fluorescent value of binding to […] was set at 100.\nFerrous iron # (100±2.6*); Control (no metal): 6.4±3.1; Ferric iron: 94.1±6.6*; Calcium: 47.6±3.7*; Vanadium: 53.9±5.5*; Manganese: 54.4±11.2*; Cobalt: 25.4±2.3*; Copper: 58.4±6.4*; Zinc: 71.4±8.3*; Ruthenium: 67.8±8.3*; (d) Alexa488-SA-labelled immodulator peptide IM1, IM2, IM3, IM4, IM5, IM6 (400 ng/well) were bound to NTA-coated plate charged with the indicated metals: # background (no peptide) control set to 1.0;*p<0.05, **p<0.01 vs “no peptide”"}, "[7]": {"assay": "Strength of binding to iron, plate assay (x2E b)", "details": "1 ug/well peptide complexed to Alexa-488-streptavidin; ferric iron", "method": "Immodulator peptides were extended C-terminally by three amino acids, to include a valine residue that is highly conserved in the “thyroglobulin type 1 motif”. The reasoning behind this attempt is that a longer conserved sequence might lead to a tighter fold overall, which might in turn result in increased metal-binding avidity. • (b) Strength of binding to iron was evaluated by plate assay.\nas §1"}, "[8]": {"assay": "Iron-binding competition assay with labeled IM3AVD (x2E d)", "details": "labeled IM3AVD plus 10x unlabeled peptide; no competing peptide = 100", "method": "as §1"}, "A375 cells": {"tested_on": "A375 cells", "assay": "A375 cell viability, CellTiterGlo (x10A)", "assay_type": "cell-based", "details": "72 hours", "method": "as §2, with “have great” for “have”, “of cancer. A375” for “of cosmetics. HFF-1”, “(ATCC). They” for “(ATCC). Cells”, “compound,” for “compound, supernatants were collected for Collagen-1 ELISA assay and”\nExperiment x10A. Anti-cancer activity of immodulator peptides on A375 cells. A 96-well plate was seeded with 2,000 A375 cells per well in DMEM medium containing 10% FBS and PenStrep. After 24 hrs at 37 deg C., compounds and peptides were added (each treatment done in quadruplicate). After a further 72 hours incubation, 100 uL/well of CTG assay reagent purchased from Promega Inc. (Madison, WI) was added. Plate was read after 10 minutes, as recommended by the manufacturer. Peptides were added at 2 uM. The results of this experiment are shown below, expressed as percent survival ofA375 cells."}, "[9]": {"assay": "Iron-binding competition assay with labeled IM3 (x2E c)", "details": "375 ng/well labeled IM3 plus 10x unlabeled peptide; no competing peptide = 100", "method": "as §1"}},
  "note": "Marks after values point to notes of the source that are not given here. Peptide text beside a SMILES is read from it.",
  "data": [
    {"smiles": "N=C(N)NCCC[C@H](NC(=O)[C@H](CCCNC(=N)N)NC(=O)[C@H](CCC(N)=O)NC(=O)CNC(=O)[C@H](CCC(N)=O)NC(=O)[C@H](CO)NC(=O)[C@H](CO)NC(=O)[C@H](CCCNC(=N)N)NC(=O)[C@H](CS)NC(=O)[C@H](CCC(N)=O)NC(=O)[C@H](CCCNC(=N)N)NC(=O)[C@H](CCCCN)NC(=O)[C@H](CCCNC(=N)N)NC(=O)[C@H](Cc1ccc(O)cc1)NC(=O)[C@H](Cc1ccccc1)NC(=O)CNC(=O)[C@H](CCCNC(=N)N)NC(=O)[C@@H](N)Cc1c[nH]cn1)C(=O)NCC(=O)N1CCC[C@H]1C(=O)N[C@@H](CS)C(=O)N[C@@H](Cc1c[nH]c2ccccc12)C(=O)O", "note": "[IM6] (H-HRGFYRKRQCRSSQGQRRGPCW-OH; N-terminus and C-terminus assumed)", "values": [
      {"measurement": "fluorescence of labeled peptide", "setting": "[1]", "value": "85.9±14.9"},
      {"measurement": "binding to PI spot", "setting": "[2]", "value": 0},
      {"measurement": "binding to PI(3,4,5)P3 spot", "setting": "[2]", "value": 0},
      {"measurement": "binding to PI(4)P1 spot", "setting": "[2]", "value": 0},
      {"measurement": "binding to PI(4,5)P2 spot", "setting": "[2]", "value": 1},
      {"measurement": "COL1 immunoreactivity in supernatant", "setting": "[3]", "value": 112},
      {"measurement": "fluorescence", "setting": "[4]", "value": "587±192"},
      {"measurement": "Percent Flowthrough", "setting": "[5]", "value": 2.0, "unit": "%"},
      {"measurement": "Percent retained", "setting": "[5]", "value": 98.0, "unit": "%"},
      {"measurement": "fluorescence", "setting": "[6]; Calcium", "value": "15.1 ± 1.9**"},
      {"measurement": "fluorescence", "setting": "[6]; Copper", "value": "2.4 ± 2.4**"},
      {"measurement": "fluorescence", "setting": "[6]; Ferrous iron, 400 ng/well", "value": "20.6 ± 0.8**"},
      {"measurement": "fluorescence", "setting": "[6]; Zinc", "value": "8.4 ± 0.4**"}
    ]},
    {"smiles": "CC(C)[C@H](NC(=O)[C@H](C)NC(=O)[C@H](Cc1c[nH]c2ccccc12)NC(=O)[C@H](CS)NC(=O)[C@H](Cc1ccccc1)NC(=O)CNC(=O)[C@H](CCCNC(=N)N)NC(=O)[C@H](CCCCN)NC(=O)[C@H](CCCNC(=N)N)NC(=O)CNC(=O)[C@H](CCCCN)NC(=O)[C@H](CO)NC(=O)[C@@H]1CCCN1C(=O)[C@H](CCCNC(=N)N)NC(=O)[C@H](CS)NC(=O)[C@H](CCC(N)=O)NC(=O)[C@H](CCCCN)NC(=O)[C@H](CCCCN)NC(=O)[C@H](CCCCN)NC(=O)[C@H](Cc1ccc(O)cc1)NC(=O)[C@H](Cc1ccccc1)NC(=O)CNC(=O)[C@H](CCCCN)NC(=O)[C@@H](N)CCCCN)C(=O)N[C@@H](CC(=O)O)C(=O)O", "note": "[IM3AVD] (H-KKGFYKKKQCRPSKGRKRGFCWAVD-OH; N-terminus and C-terminus assumed)", "values": [
      {"measurement": "fluorescence of labeled peptide", "setting": "[1]", "value": "137.7±11.8"},
      {"measurement": "fluorescence (iron binding)", "setting": "[7]", "value": "434±29"},
      {"measurement": "fluorescence of labeled IM3AVD with competing peptide", "setting": "[8]", "value": "9±19"},
      {"measurement": "percent survival of A375 cells", "setting": "A375 cells; peptide 2 uM + Kin1400 4 uM (RIG-I agonist)", "value": "12.5** percent"},
      {"measurement": "percent survival of A375 cells", "setting": "A375 cells; peptide 2 uM, Buffer", "value": 96.0, "unit": "%"},
      {"measurement": "fluorescence of labeled IM3 with competing peptide", "setting": "[9]", "value": "10±28"}
    ]}
  ]
}
